Source: publication PMC5051080, “Safety, pharmacokinetics, and antitumor properties of anlotinib, an oral multi-target tyrosine kinase inhibitor, in patients with advanced refractory solid tumors” (Journal of Hematology & Oncology, 2016)
Like-named read-outs stand apart in the source and are kept apart here.

What was measured:
[1] = system: advanced refractory solid tumors; assay: Tumor response by RECIST 1.1; type: in vivo, human
Description: Efficacies were evaluated according to NCI-proposed Response Evaluation Criteria In Solid Tumors (RECIST 1.1). The tumor will be assessed every two cycles including tumor-related symptoms and physical and imaging examination (CT or MRI) of superficial lesions. Physical and imaging examination of tumor lesions should be done at least four weeks after the first effect evaluation in patients with complete remission (CR), partial remission (PR), and stable disease (SD) to confirm efficacy.

[2] = Multiple-dose pharmacokinetics in cancer patients; type: in vivo, human
Description: In single-dose studies, anlotinib were administered orally at dose of 5, 10, 12, or 16 mg anlotinib/person. Serial blood samples were collected in heparinized tubes before and at 0.5, 1, 2, 4, 8, 11, 24, 48, 72, 96, 120, 144, 168, 192, 216, and 240 h (samples of 144–240 h were collected only in 12 or 16 mg/person dose group) after dosing. In the 10 mg/person dose group, urine was sampled before and 0–2, 2–6, 6–11, 11–24, 24–34, 34–48, 48–58, 58–72, 72–96, and 96–120 h after dosing. In multiple-dose studies, there were two ways of multiple-dose administration. Initially, patients in 5 and 10 mg/person/day groups were treated consecutively for 28 days. […] Concentrations of anlotinib were measured by liquid chromatography/mass spectrometry.
The maximum concentration (C max) and the time taken to achieve C max (T max) were obtained directly from the data with no interpolation. The area under concentration-time curve up to the last measured time point (AUC0 − t) was calculated by the trapezoidal rule. The elimination half-life (t 1/2) was calculated using the relationship 0.693/k. […] The renal clearance (CLR) was calculated by dividing the cumulative amount excreted into urine (Cum.A e − U) by plasma AUC0 − t. Accumulation ratio (R ac) was used to indicate the extent of accumulation during multiple doses of anlotinib capsules and calculated using the following equation: Rac=C24hDay15/C24hDay1, […]

[3] = system: FGFR1-4; conditions: especially FGFR2; to a greater extent than sorafenib; preclinical results; cited from earlier work
[4] = dogs; cited from earlier work
[5] = Single-dose pharmacokinetics in cancer patients; type: in vivo, human; conditions: for AUC(0-t): read-out: AUC0–120h
Description: In single-dose studies, anlotinib were administered orally at dose of 5, 10, 12, or 16 mg anlotinib/person. Serial blood samples were collected in heparinized tubes before and at 0.5, 1, 2, 4, 8, 11, 24, 48, 72, 96, 120, 144, 168, 192, 216, and 240 h (samples of 144–240 h were collected only in 12 or 16 mg/person dose group) after dosing. In the 10 mg/person dose group, urine was sampled before and 0–2, 2–6, 6–11, 11–24, 24–34, 34–48, 48–58, 58–72, 72–96, and 96–120 h after dosing. In multiple-dose studies, there were two ways of multiple-dose administration. Initially, patients in 5 and 10 mg/person/day groups were treated consecutively for 28 days. Blood samples were collected 24 h after dosing on days 1, 2, 4, 7, 10, 13, 15, 16, 18, 21, 24, 28, and 29. Later, the other volunteers were given multiple doses of anlotinib at 10, 12, or 16 mg anlotinib/person/day in the 2/1 schedule for two cycles. Blood samples were collected 24 h after dosing on days 1, 4, 7, 10, 13, 15, 18, 22, 29, and 36. The collected blood samples were centrifuged to prepare plasma fractions; the urine samples were weighed after collection. All samples were stored at −70 °C for subsequent analysis. Concentrations of anlotinib were measured by liquid chromatography/mass spectrometry.
The maximum concentration (C max) and the time taken to achieve C max (T max) were obtained directly from the data with no interpolation. The area under concentration-time curve up to the last measured time point (AUC0 − t) was calculated by the trapezoidal rule. The elimination half-life (t 1/2) was calculated using the relationship 0.693/k. The k was estimated by linear regression analysis of the terminal portion of the log concentration-time data. The renal clearance (CLR) was calculated by dividing the cumulative amount excreted into urine (Cum.A e − U) by plasma AUC0 − t. Accumulation ratio (R ac) was used to indicate the extent of accumulation during multiple doses of anlotinib capsules and calculated using the following equation: Rac=C24hDay15/C24hDay1,
where C 24 h(Day1) and C 24 h(Day15) are plasma concentrations of anlotinib at 24 h after dosing on day 1 and day 15, respectively. Plasma pharmacokinetic (PK) parameters were determined using noncompartmental method with a Kinetica software package (version 5.0; Thermo Scientific, Philadelphia, PA).

[6] = system: human cytochrome P450 3A4; conditions: in vitro; read-out: half maximum inhibitory concentration; cited from earlier work
[7] = rats, cited from earlier work
[8] = system: VEGFR3; set-up: method as in details pending publication elsewhere; conditions: recombinant enzymes; ref details pending publication elsewhere; cited from earlier work
[9] = system: patients with advanced refractory solid tumors; assay: Phase I safety and tolerability (DLT, MTD, adverse events NCI-CTCAE 4.0); type: in vivo; conditions: for dose-limiting toxicity: in vivo
From the text: Those patients received escalating doses of anlotinib daily for (1) four consecutive weeks (4/0) or (2) 2-week on/1-week off (2/1). […] If two DLTs were observed during the first cycle in a cohort, dose-escalation was halted and dose continued at a lower level until the MTD (the highest dose level for which the incidence of first-cycle DLT was <33 %) was identified. In the absence of two or more DLTs in a cohort, the dose was escalated in a modified Fibonacci scheme. Treatment cycles were repeated until disease progression, unacceptable toxicity, or withdrawal of consent.
Adverse events are graded into 0–5 according to the National Cancer Institute Common Terminology Criteria for Adverse Events (NCI-CTCAE 4.0). During treatment, blood pressure will be monitored every day. Patients with unresolved adverse reactions at the end of the test needed to be treated and followed until the reactions returned to the grade 1 degree or less, or stable.

[10] = tumor-bearing mice; cited from earlier work
[11] = system: human tumor xenograft models (SW-620, SK-OV-3, SMMC-7721, Caki-1, U87MG, Calu-3); conditions: colon, ovarian, liver, renal, glioma, non-small cell lung; during dosing period; cited from earlier work
[12] = system: human cytochrome P450 2C9; conditions: in vitro; read-out: half maximum inhibitory concentration; cited from earlier work
[13] = system: tumor cells carrying mutations in PDGFR α, c-Kit, Met, and EGFR; conditions: preclinical background; cited from earlier work
[14] = system: VEGFR2/KDR; set-up: method as in details pending publication elsewhere; conditions: recombinant enzymes; ref details pending publication elsewhere; cited from earlier work
[15] = 12 mg/day 2/1 schedule, 20 assessable patients
[16] = human, plasma, single oral dose 5 mg/person (n = 1)
[17] = human, plasma, single oral dose 10 mg/person (n = 4)
[18] = human, plasma, single oral dose 12 mg/person (n = 11)
[19] = human, plasma, single oral dose 16 mg/person (n = 4)
[20] = human, plasma, single oral dose 5-16 mg/person, range

With `COc1cc2c(Oc3ccc4[nH]c(C)cc4c3F)ccnc2cc1OCC1(N)CC1` [anlotinib] the “patients with tumor burden shrinkage” value ([1]; 12 mg once daily) was “More than 60%”, the “partial response (PR)” value [1, 15] was 15% and the “partial response (PR), patients” value [1, 15] was 3. The “patients with tumor burden shrinkage among SD” value [1, 15] was 12, the “progressive disease (PD)” value [1, 15] was 15% and the “progressive disease (PD), patients” value [1, 15] was 3. For the same compound, the “stable disease (SD), patients” value [1, 15] was 14, the “day at which maximum plasma concentration was reached” value ([2]; 2/1 schedule, 2-week dosing) was 14 days and the “accumulation ratio R ac (C24h Day15/C24h Day1)” value ([2]; multiple oral doses, mean) was 12 ± 7. The “inactivation of FGFR1-4” value [3] was “significantly inactivated”, the oral bioavailability [4] was 47–74% and the half-life ([5]; human, plasma, oral, mean over doses, dose-independent) was 96 ± 17 h. It also gave an AUC(0-inf) [5, 16] of 687 ng·h/mL, a Cmax [5, 16] of 5.8 ng/mL and a Tmax [5, 16] of 11 h. For the same compound, the half-life [5, 16] was 102 h, the AUC(0-t) [5, 16] was 411 ng·h/mL and the AUC(0-inf) [5, 17] was 562 ± 328 ng·h/mL. It also gave a Cmax [5, 17] of 5.8 ± 2.8 ng/mL, a Tmax [5, 17] of 6 ± 4.4 h and a half-life [5, 17] of 95 ± 22 h. The AUC(0-t) [5, 17] was 318 ± 133 ng·h/mL, the AUC(0-inf) [5, 18] was 1070 ± 263 ng·h/mL and the Cmax [5, 18] was 10.5 ± 2.9 ng/mL. The Tmax [5, 18] was 7.3 ± 3.3 h, the half-life [5, 18] was 116 ± 47 h and the AUC(0-t) [5, 18] was 617 ± 194 ng·h/mL. For the same compound, the AUC(0-inf) [5, 19] was 1580 ± 470 ng·h/mL, the Cmax [5, 19] was 15.8 ± 3.2 ng/mL and the Tmax [5, 19] was 11 ± 8.9 h. It also gave a half-life [5, 19] of 98 ± 15 h, an AUC(0-t) [5, 19] of 894 ± 305 ng·h/mL and an MRT [5, 20] of 124 to 167 h. It also gave a Tmax [5, 20] of 4 to 11 h, a half-life [5, 20] of 64 to 136 h and a CL renal ([5]; human, urine and plasma, single oral dose, urine sampled in 10 mg/person group, read-out: renal clearance CLR (converted)) of 4 mL/h/kg. The “dose proportionality of AUC0–120h, Conclusion” value ([5]; single oral dose) was “Inconclusive”, the “dose proportionality of AUC0–∞, Conclusion” value ([5]; single oral dose) was “Inconclusive” and the “dose proportionality of C max, Conclusion” value ([5]; single oral dose) was “Inconclusive”. For the same compound, the “fraction of the dose excreted into urine (f e − U)” value ([5]; single oral dose, urine sampled in 10 mg/person group) was ~ 0.9%, the IC50 [6] was 110 nM and the oral bioavailability ([7]; oral) was 23–45%. For the same compound, the “exposure level in lung, kidneys, liver, heart compared with plasma” value [7] was “significant higher”, the “exposure level in the brain compared with plasma level” value [7] was “comparable” and the “potency relative to sorafenib” value [8] was roughly 500 times. The “potency relative to sunitinib” value [8] was “approximately 20 times”, the dose-limiting toxicity ([9]; human) was “grade 3 hypertension and grade 3 fatigue” and the dose-limiting toxicity ([9]; human, 4 weeks) was “grade 3 hypertension”. For the same compound, the dose-limiting toxicity [9] was “no DLT”, the maximum tolerated dose ([9]; once daily, 2/1 schedule) was 12 mg and the “concentration in tumor tissue relative to plasma” value [10] was 2.4–2.6 times. The “activity against human tumor xenograft models” value [11] was “broad activity”, the IC50 [12] was 250 nM and the “antitumor activity against tumor cells carrying mutations” value [13] was “showed antitumor activity”. The “potency relative to sorafenib” value [14] was roughly 500 times and the “potency relative to sunitinib” value [14] was “approximately 20 times”.
